Measurements as given in patent US20250107526A1, “METHOD OF IMPROVING PLANT GROWTH” (UPL CORPORATION LIMITED, priority 2022, published 2025).

How the values were obtained:
Type in all cases: in vivo
[1] = system: maize seeds inoculated with Pythium ultimum; assay: Emergence and vigor of maize seeds inoculated with Pythium ultimum after cyazofamid seed treatment (growth chamber); conditions: 160 g/l suspension concentrate, 20 days after sowing
Protocol: An inoculum of Pythium ultimum isolated from cotton was used to inoculate maize seeds. The infected maize grains were mixed with soil in a ratio of 10:90 v/v, respectively. The seeds were treated as depicted in the Table 1 below. The seeds used in treatments 1, 3 and 4 were inoculated with Pythium ultimum. The said seeds were cultivated in a growth chamber at a temperature of 22° C., for a 10 h dark/14 h light photoperiod. The seed arrangement was 10 seeds/plot (pot 10×10 cm); 3rep1/treatment. [table] The % emergence of seeds and the % vigor was observed 20 days after sowing of seeds.

wheat grains = assay: Plant growth improvement of wheat grains treated with cyazofamid, field trials
From the text: The present inventors have determined the plant growth improvement in wheat grains treated with cyazofamid in field trials. The treatments employed have been depicted in table 4 below. The results in terms of crop establishment in field, root weight, shoot weight and the total plant weight have been indicated in table 5 below: [table]

Corn seeds = assay: Emergence speed index (ESI) of treated seeds, corn; conditions: suspension concentrate of 40% cyazofamid
Protocol: (§1) The seed emergence index was evaluated for seeds of different crops including corn, cotton and wheat treated with cyazofamid. The treatment protocol and the results are disclosed in the table below. […] A suspension concentrate of 40% cyazofamid was used in the treatment.

Cotton seeds = assay: Emergence speed index (ESI) of treated seeds, cotton; conditions: suspension concentrate of 40% cyazofamid
Protocol: as §1

Wheat seeds = assay: Emergence speed index (ESI) of treated seeds, wheat; conditions: suspension concentrate of 40% cyazofamid
Protocol: as §1

[2] = system: seeds of different crops including corn, cotton and wheat
Protocol: as §1

[3] = seed treatment 10 g/100/kg seeds
[4] = seed treatment 50 g/100/kg seeds
[5] = 10 g ai/100 kg (25 ml/100 kg seeds)
[6] = 20 g ai/100 kg (50 ml/100 kg seeds)
[7] = 30 g ai/100 kg (75 ml/100 kg seeds)
[8] = 50 g ai/100 kg (125 ml/100 kg seeds)
[9] = 100 g ai/100 kg (250 ml/100 kg seeds)

Question: What does the source list for `Cc1ccc(-c2c(Cl)nc(C#N)n2S(=O)(=O)N(C)C)cc1` [Cyazofamid, 4-chloro-2-cyano-N, N-dimethyl-5-p-tolylimidazole-1-sulfonamide]?
Answer: % emergence (20 DAS) [1, 3]: 76.67%; % vigor (20 DAS) [1, 3]: 86.67%; % emergence (20 DAS) [1, 4]: 73.33%; % vigor (20 DAS) [1, 4]: 83.33%; Root weight (wheat grains; [5]): 3.1 g; Shoot weight (wheat grains; [5]): 5.9 g; Total plant weight (wheat grains; [5]): 9.0 g; Crop establishment plants/m row 25 DAA (wheat grains; [5]): 81.5 plants/m row; Crop establishment plants/m row 38 DAA (wheat grains; [5]): 74.5 plants/m row; Root weight (wheat grains; [6]): 3.1 g; Shoot weight (wheat grains; [6]): 5.3 g; Total plant weight (wheat grains; [6]): 8.4 g; Crop establishment plants/m row 25 DAA (wheat grains; [6]): 73.1 plants/m row; Crop establishment plants/m row 38 DAA (wheat grains; [6]): 79.4 plants/m row; Root weight (wheat grains; [7]): 3.8 g; Shoot weight (wheat grains; [7]): 5.4 g; Total plant weight (wheat grains; [7]): 9.2 g; Crop establishment plants/m row 25 DAA (wheat grains; [7]): 74.8 plants/m row; Crop establishment plants/m row 38 DAA (wheat grains; [7]): 80.8 plants/m row; Root weight (wheat grains; [8]): 3.0 g; Shoot weight (wheat grains; [8]): 5.0 g; Total plant weight (wheat grains; [8]): 8.1 g; Crop establishment plants/m row 25 DAA (wheat grains; [8]): 75.6 plants/m row; Crop establishment plants/m row 38 DAA (wheat grains; [8]): 82.5 plants/m row; Root weight (wheat grains; [9]): 2.9 g; Shoot weight (wheat grains; [9]): 5.2 g; Total plant weight (wheat grains; [9]): 8.1 g; Crop establishment plants/m row 25 DAA (wheat grains; [9]): 74.0 plants/m row; Crop establishment plants/m row 38 DAA (wheat grains; [9]): 79.9 plants/m row; crop establishment in field, root weight, shoot weight and total plant weight compared with untreated control (wheat grains; in words, treated wheat grains, 10-100 g ai/100 kg): higher; Emergence speed index (ESI) (Corn seeds; 10 g ai/100 kg): 32.7; Emergence speed index (ESI) (Corn seeds; 50 g ai/100 kg): 32.9; Emergence speed index (ESI) (Corn seeds; 100 g ai/100 kg): 32.6; Emergence speed index (ESI) (Cotton seeds; 10 g ai/100 kg): 6.9; Emergence speed index (ESI) (Cotton seeds; 50 g ai/100 kg): 6.3; Emergence speed index (ESI) (Cotton seeds; 100 g ai/100 kg): 6.5; Emergence speed index (ESI) (Wheat seeds; 10 g ai/100 kg): 22.7; Emergence speed index (ESI) (Wheat seeds; 50 g ai/100 kg): 23.0; Emergence speed index (ESI) (Wheat seeds; 100 g ai/100 kg): 22.5; phytotoxicity in the emergent plants ([2]; in vivo): no phytotoxicity observed; emergence index of treated seeds compared with untreated seeds ([2]; in words, corn, cotton and wheat seeds, 10-100 g ai/100 kg): more efficient than untreated seeds
